Data set [1] addresses Urokinase-type plasminogen activator (Homo sapiens, UniProt P00749). Nature of the data set: Inhibition of human urokinase uPA using Z-Gly-Gly-Arg-AMC as substrate by fluorescence plate reader assay.
In a further data set the test system is U-251. Nature of the data set: Cytotoxicity against human U-251MG cells incubated for 48 hrs by MTT assay. The data set is classed as functional, cell-based. To be noted: U-251, 48 h.
In another data set the test system is Caco-2. Nature of the data set: Cytotoxicity against human Caco-2 cells incubated for 48 hrs by MTT assay. Type of data set: functional, cell-based. To be noted: Caco-2, 48 h.
Data set [2] is described as follows: Cytotoxicity against human MRC5 cells incubated for 48 hrs by MTT assay. Type of data set: toxicity, cell-based.
A further data set concerns OVCAR-3. Nature of the data set: Cytotoxicity against human OVCAR-3 cells incubated for 48 hrs by MTT assay. Type of data set: functional, cell-based. Particulars: OVCAR-3, 48 h.
In a further data set the test system is A549. In words: Cytotoxicity against human A549 cells incubated for 48 hrs by MTT assay. The data set is classed as functional, cell-based. Particulars: A549, 48 h.
For a further data set, the system named is U-118-MG. In words: Cytotoxicity against human U-118 MG cells incubated for 48 hrs by MTT assay. The data set is classed as functional, cell-based.
The subject of another data set is U-87 MG. Nature of the data set: Cytotoxicity against human U-87 MG cells incubated for 48 hrs by MTT assay. The data set is classed as functional, cell-based, U-87MG ATCC.
Another data set deals with MDA-MB-231. In words: Cytotoxicity against human MDA-MB-231 cells incubated for 48 hrs by MTT assay. Type of data set: functional, cell-based. Particulars: MDA-MB-231, 48 h.
The test system of the next data set is SK-OV-3. Nature of the data set: Cytotoxicity against human SK-OV-3 cells incubated for 48 hrs by MTT assay. The data set is classed as functional, cell-based. To be noted: SK-OV-3, 48 h.
For the next data set, the system named is HeLa. Nature of the data set: Cytotoxicity against human HeLa cells incubated for 48 hrs by MTT assay. The data set is classed as functional, cell-based.
The subject of a further data set is HepG2. In words: Cytotoxicity against human HepG2 cells incubated for 48 hrs by MTT assay. The data set is classed as functional, cell-based. Particulars: HepG2, 48 h.

pIC50: −log10 of the molar value.

Consider `COc1ccc([C@@H](C)NC(c2ccccc2F)P(=O)(OC)OC)cc1` (stereo not given in full), for which the pIC50 in data set [1] was 3.94; with U-251 it was 5.06; in the data set with Caco-2, 5.89; in the data set on OVCAR-3, 4.80; in the data set with A549, 4.36; in the data set on U-118-MG, less than 3.30. For the same compound, the pIC50 in the data set with U-87 MG was 5.03; in the data set with MDA-MB-231, 3.78; in the data set with SK-OV-3 it was 3.47; in the data set on HeLa, 5.29; with HepG2, 4.14. In data set [2], this compound showed an IC50 at 48 h of 29.1 µM.
Turning to `O=c1[nH]c(=O)n([C@H]2C[C@H](O)[C@@H](CO)O2)cc1F` [FLOXURIDINE], the pIC50 with U-251 was 4.75; in the data set with OVCAR-3, 4.61; in the data set with A549, 4.64; with U-87 MG, 4.73; in the data set on MDA-MB-231 it was 5.25; in the data set on SK-OV-3 it was 4.89. The compound also gave a pIC50 in the data set on HepG2 of 4.42.
For the compound `COP(=O)(OC)C(N[C@@H](C)C(C)(C)C)c1c(F)cc(F)cc1F` (stereo not given in full), the pIC50 in data set [1] is 3.14; with U-251, 3.84; in the data set with Caco-2, 4.14; in the data set with OVCAR-3, 4.86; in the data set with A549, 4.31; with U-118-MG, 3.91. For the same compound, the negative-log IC50 (pIC50) is 4.21 in the data set on U-87 MG; 4.08 with MDA-MB-231; 5.15 in the data set on SK-OV-3; 5.38 with HeLa; 4.04 with HepG2. For the same compound, the IC50 at 48 h in data set [2] worked out at 15 µM.
As for `CCOP(=O)(OCC)C(N[C@H](C)c1ccccc1)c1ccc(F)cc1F` (stereo not given in full), the pIC50 was 5.25 with U-251; 5.65 with Caco-2; 5.25 in the data set with OVCAR-3; 4.45 in the data set on A549; 4.46 in the data set on U-118-MG; 5.11 in the data set on U-87 MG. Moreover, the negative logarithm of the IC50 (pIC50) in the data set on MDA-MB-231 is 4.93; in the data set on SK-OV-3, 5.49; with HeLa, 5.39; in the data set on HepG2, 3.93. The IC50 at 48 h in data set [2] came out at 16.6 µM.
For `CCOP(=O)(OCC)C(N[C@H](C)c1ccc(OC)cc1)c1ccc(F)cc1F` (stereo not given in full), the pIC50 in [1] was 3.55; with U-251, 4.27; with Caco-2 it was 4.32; in the data set with OVCAR-3, 6.19; with A549, 4.67; in the data set with U-118-MG, 4.36. Also, the pIC50 in the data set with U-87 MG is 4.23; with MDA-MB-231, 3.81; in the data set on SK-OV-3, 5.79; in the data set with HeLa, 4.49; with HepG2 it was 5.11. Further, in data set [2], the midpoint of inhibition, the IC50 at 48 h, lay at 4.71 µM.
In the case of `COc1ccc([C@@H](C)NC(c2c(F)c(F)c(F)c(F)c2F)P(=O)(OC)OC)cc1` (stereo not given in full), the pIC50 in data set [1] was 3.45; in the data set with U-251 it was 4.28; in the data set on Caco-2, 5.16; with OVCAR-3 it was 4.86; with A549 it was 4.12; in the data set with U-118-MG it was 4.50. In addition, the negative logarithm of the IC50 (pIC50) in the data set with U-87 MG is 4.35; in the data set with MDA-MB-231 it was 4.10; with SK-OV-3 it was 5.36; in the data set with HeLa it was 4.28; with HepG2, 4.45. This compound also returned an IC50 at 48 h in data set [2] of 2.17 µM.
As to `COP(=O)(OC)C(N[C@H](C)c1ccccc1)c1ccc(F)cc1F` (stereo not given in full), the pIC50 was 3.96 with U-251; 5.06 in the data set on Caco-2; 5.61 with OVCAR-3; 5.26 in the data set on A549; 4.17 in the data set with U-118-MG; 4.24 with U-87 MG. Besides, the pIC50 was 3.77 in the data set on MDA-MB-231, 4.76 in the data set with SK-OV-3, 5.27 in the data set on HeLa and 4.32 in the data set on HepG2. This compound also had an IC50 at 48 h in data set [2] of 5.24 µM.
As to `COc1ccc([C@@H](C)NC(c2ccc(F)cc2F)P(=O)(OC)OC)cc1` (stereo not given in full), the pIC50 in data set [1] is 3.83; with U-251, 4.72; in the data set on Caco-2, 4.55; in the data set with OVCAR-3, 4.00; in the data set with A549, 4.27; in the data set on U-118-MG it was 3.74. Further, the pIC50 with U-87 MG was 5.00; in the data set on MDA-MB-231, 4.96; with SK-OV-3, 5.43; with HeLa it was 5.60; with HepG2, 4.23. The compound further returned an IC50 at 48 h in data set [2] of 10.6 µM.
`CCOP(=O)(OCC)C(N[C@@H](C)C(C)(C)C)c1ccc(F)cc1` (stereo not given in full): the pIC50 was 4.61 with U-251; 4.29 in the data set with Caco-2; 4.15 in the data set on OVCAR-3; 4.31 with A549; 4.19 with U-118-MG; 4.96 in the data set on U-87 MG. For the same compound, the pIC50 in the data set on MDA-MB-231 was 4.23; with SK-OV-3 it was 4.82; in the data set with HeLa, 4.89; with HepG2, 4.46. The compound further had an IC50 at 48 h in [2] of 13.8 µM.

For the origin of these results see ChEMBL document CHEMBL6074679, “Diastereoselective synthesis and biological evaluation of new fluorine-containing α-aminophosphonates as anticancer agents and scaffold to human urokinase plasminogen activator inhibitors” (Eur J Med Chem, 2025).
